US9090565B2, “1-pyridazinyl-hydroxyimino-3-phenyl-propanes” (Hoffmann-La Roche Inc., priority 2011, dated 2015)

The compounds below were run against T1, human GPBAR1 receptor (Homo sapiens, UniProt Q8TDU6) (assay: functional cAMP assay in CHO-dhfr(minus) cells expressing human GPBAR1 receptors). Settings: TR-FRET, 30 min at 30° C.
T1 construct: expressed in transfected cells
T1 sequence (Q8TDU6 1-330): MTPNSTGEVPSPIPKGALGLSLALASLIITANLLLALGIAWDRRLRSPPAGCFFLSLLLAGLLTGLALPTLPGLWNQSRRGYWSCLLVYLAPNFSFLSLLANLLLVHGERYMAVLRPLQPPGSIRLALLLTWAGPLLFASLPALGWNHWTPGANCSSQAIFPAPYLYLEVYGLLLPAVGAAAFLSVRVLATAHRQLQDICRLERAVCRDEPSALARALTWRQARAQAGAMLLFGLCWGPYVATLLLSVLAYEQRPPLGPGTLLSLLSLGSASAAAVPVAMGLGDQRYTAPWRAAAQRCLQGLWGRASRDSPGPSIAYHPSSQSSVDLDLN
Format: cell-based
Text: The cDNA of the human GPBAR1 receptor (Genbank: NM_170699 with the exception of a silent C:G mutation at position 339 from the start codon) was amplified by polymerase chain reaction (PCR) from human cDNA and inserted into pCineo (Promega) by standard methods (Current Protocols in Molecular Biology, Wiley Press, ed. Ausubel et al.). The final clone was verified by DNA sequence analysis. The plasmid was transfected into CHO cells deficient in dihydrofolate reductase activity (CHO-dhfr-) using Lipofectamine plus (Invitrogen). Clones were isolated in limited dilution conditions and identified by activities in the cAMP assay using lithocholic acid as agonist. A clonal cell line displaying the greatest activity in cAMP increases was selected and identified as giving consistently good responses for up to at least 20 passages.
CHO-dhfr(minus) cells expressing human GPBAR1 receptors are seeded 17-24 hours prior to the experiment 50,000 cells per well in a black 96 well plate with flat clear bottom (Corning Costar #3904) in DMEM (Invitrogen No. 31331), 1×HT supplement, with 10% fetal calf serum and incubated at 5% CO2 and 37° C. in a humidified incubator. The growth medium was exchanged with Krebs Ringer Bicarbonate buffer with 1 mM IBMX and incubated at 30° C. for 30 min. Compounds were added to a final assay volume of 100 μl and incubated for 30 min at 30° C. The assay was stopped by the addition of 50 μl lysis reagent (Tris, NaCl, 1.5% Triton X100, 2.5% NP40, 10% NaN3) and 50 μl detection solutions (20 μM mAb Alexa700-cAMP 1:1, and 48 μM Ruthenium-2-AHA-cAMP) and shaked for 2 h at room temperature. The time-resolved energy transfer is measured by a TRF reader (Evotec Technologies GrmbH, Hamburg Germany), equipped with a ND:YAG laser as excitation source. The plate is measured twice with the excitation at 355 nm and at the emission with a delay of 100 ns and a gate of 100 ns, total exposure time 10 s at 730 (bandwidth 30 nm) or 645 nm (bandwidth 75 nm), respectively. The measured signal at 730 nm has to be corrected for the ruthenium background, the direct excitation of Alexa and the buffer control. The FRET signal is calculated as follows: FRET=T730−Alexa730-P(T645−B645) with P=Ru730−B730/Ru645−B645, where T730 is the test well measured at […], T645 is the test well measured at 645 nm, B730 and B645 are the buffer controls at 730 nm and 645 nm, respectively, cAMP content is determined from the function of a standard curve spanning from 10 μM to 0.13 nM cAMP.
EC50 values were determined using Activity Base analysis (ID Business Solution, Limited). The EC50 values for a wide range of bile acids generated from this assay were in agreement with the values published in the scientific literature. Specificity for GPBAR1 was tested in non-transfected CHO cells in the same assay as above.
With `Cc1ccccc1[C@H](C/C(=N\O)c1ccnnc1)c1ccc(Br)cc1` [Example 1, (R,E)-3-(4-Bromophenyl)-1-(pyridazin-4-yl)-3-o-tolylpropan-1-one oxime] the EC50 was 80 nM. In the case of `Cc1ccccc1C(C/C(=N\O)c1ccnnc1)c1ccc(-c2ccc(C(=O)O)cc2)cc1` (centres unmarked) [Example 2, (E)-4′-(3-(hydroxyimino)-3-(pyridazin-4-yl)-1-o-tolylpropyl)biphenyl-4-carboxylic acid], the EC50 is reported as 1560 nM. Compound `Cc1ccccc1C(C/C(=N\O)c1ccnnc1)c1ccc(C2CCN(S(C)(=O)=O)CC2)cc1` (centres unmarked) [Example 3, (E)-3-(4-(1-(methylsulfonyl)piperidin-4-yl)phenyl)-1-(pyridazin-4-yl)-3-o-tolylpropan-1-one oxime] has an EC50 of 956 nM. In the case of `COc1nnccc1/C(C[C@@H](c1ccc(Br)cc1)c1ccccc1C)=N/O` [Example 4, (S,E)-3-(4-bromophenyl)-1-(3-methoxypyridazin-4-yl)-3-o-tolylpropan-1-one oxime], the EC50 is reported as 31 nM. `Cc1ccccc1[C@@H](C/C(=N\O)c1ccn[nH]c1=O)c1ccc(Br)cc1` [Example 5, (S,E)-4-(3-(4-Bromophenyl)-1-(hydroxyimino)-3-o-tolylpropyl)pyridazin-3(2H)-one] gave an EC50 of 148 nM. Work on `Cc1ccccc1[C@@H](C/C(=N\O)c1ccnn(C)c1=O)c1ccc(Br)cc1` [Example 6, (S,E)-4-(3-(4-Bromophenyl)-1-(hydroxyimino)-3-o-tolylpropyl)-2-methylpyridazin-3(2H)-one] yielded an EC50 of 90 nM. `Cc1ccccc1[C@H](C/C(=N\O)c1ccc(=O)n(C)n1)c1ccc(Br)cc1` [Example 7, (R,E)-6-(3-(4-Bromophenyl)-1-(hydroxyimino)-3-o-tolylpropyl)-2-methylpyridazin-3(2H)-one] was tested, and the EC50 was 6 nM. With `Cc1ccccc1[C@H](C/C(=N\O)c1ccc(=O)n(C)n1)c1ccc(C2CCN(S(C)(=O)=O)CC2)cc1` [Example 8, (R,E)-6-(1-(Hydroxyimino)-3-(4-(1-(methylsulfonyl)piperidin-4-yl)phenyl)-3-o-tolylpropyl)-2-methylpyridazin-3(2H)-one] the EC50 was 33 nM. `Cc1ccccc1[C@H](C/C(=N\O)c1ccc(=O)n(C)n1)c1ccc(-c2ccc(C(=O)O)cc2)cc1` [Example 9, (R,E)-4′-(3-(Hydroxyimino)-3-(1-methyl-6-oxo-1,6-dihydropyridazin-3-yl)-1-o-tolylpropyl)biphenyl-4-carboxylic acid] gave an EC50 of 61 nM. Compound `Cc1ccccc1[C@H](C/C(=N\O)c1ccc(=O)n(C)n1)c1ccc(S(C)(=O)=O)cc1` [Example 10, (R,E)-6-(1-(Hydroxyimino)-3-(4-(methylsulfonyl)phenyl)-3-o-tolylpropyl)-2-methylpyridazin-3(2H)-one] has an EC50 of 60 nM. `COc1nnccc1/C(C[C@H](c1ccc(C2CCN(S(C)(=O)=O)CC2)cc1)c1ccccc1C)=N/O` [Example 11, (R,E)-1-(3-Methoxypyridazin-4-yl)-3-(4-(1-(methylsulfonyl)piperidin-4-yl)phenyl)-3-o-tolylpropan-1-one oxime] showed an EC50 of 52 nM. `Cc1ccccc1[C@H](C/C(=N\O)c1ccn[nH]c1=O)c1ccc(C2CCN(S(C)(=O)=O)CC2)cc1` [Example 12, (R,E)-4-(1-(Hydroxyimino)-3-(4-(1-(methylsulfonyl)piperidin-4-yl)phenyl)-3-o-tolylpropyl)pyridazin-3(2H)-one] was tested, and the EC50 was 527 nM. Compound `Cc1ccccc1[C@H](C/C(=N\O)c1ccnn(C)c1=O)c1ccc(C2CCN(S(C)(=O)=O)CC2)cc1` [Example 13, (R,E)-4-(1-(Hydroxyimino)-3-(4-(1-(methylsulfonyl)piperidin-4-yl)phenyl)-3-o-tolylpropyl)-2-methylpyridazin-3(2H)-one] has an EC50 of 179 nM. `Cc1ccccc1[C@@H](C/C(=N\O)c1ccc(=O)[nH]n1)c1ccc(Br)cc1` [Example 14, (S,E)-6-(3-(4-Bromophenyl)-1-(hydroxyimino)-3-o-tolylpropyl)pyridazin-3(2H)-one] gave an EC50 of 648 nM.
